Results: PubChem BioAssay AID488890 (Southern Research Specialized Biocontainment Screening …, 2010)
Inconclusive results are not listed. Active and inactive are the calls of the source. The rule behind the calls is not given here.

system: Mycobacterium tuberculosis non-replicating, growth inhibition; assay: growth inhibition of non-replicating M. tuberculosis (AID 488890)

Row | Compound | IC50
1 | COCCn1c(C)cc(C(=O)COC(=O)c2ccc(Br)o2)c1C | 43.8 µM (inactive)
2 | Cc1nnc(SCCC(=O)Nc2ccc(Cl)cc2)o1 | 39.2 µM (inactive)
3 | COc1cccc2cc(C(=O)c3ccc([N+](=O)[O-])cc3)oc12 | 6.05 µM
4 | COc1cc(/C=C2/C(=O)NN(c3ccc(Cl)cc3)C2=O)ccc1OC(=O)c1ccco1 | 5.12 µM
5 | COc1ccccc1-n1c(=O)oc2ccc(Cl)cc2c1=O | 12 µM (inactive)
6 | O=[N+]([O-])c1ccc(N2CCCCCC2)c2nonc12 | 21.7 µM (inactive)
7 | CS(=O)(=O)Cc1nc2ccccc2oc1=O | 3.18 µM
8 | COc1ccc(CCNc2cc(-c3ccccc3)nc3ncnn23)cc1 | 0.49 µM
9 | CCSc1nc(O)c(C2OC(=O)c3c2ccc(OC)c3OC)c(=O)n1-c1ccccc1 (centres undefined) | 13.3 µM (inactive)
10 | CC(=O)c1ccc(C(=O)Nc2nnc(-c3ccc(Cl)cc3)o2)cc1 | 4.03 µM
11 | COc1cccc2c1C(CO)N1C(C#N)C3CC(C(=O)O)C(C1C2)N3C (centres undefined) | 2.09 µM
12 | CCc1cc2c(=O)n(C(C)C(=O)OC3CCCCC3)cnc2s1 (centres undefined) | 16.6 µM (inactive)
13 | O=C(c1ccc([N+](=O)[O-])o1)N1CCc2ccccc2C1 | 5.15 µM
14 | CCc1ccc(Cc2cnc(NC(=O)C3=NCCN3)s2)cc1 | 2.85 µM
15 | COC(=O)c1ccc(N2CCN(CCNC(=O)Nc3ccc(OC)cc3)CC2)cc1 | 6.13 µM
16 | Clc1ccc(Cc2nnc(-c3cccs3)o2)cc1 | < 0.1 µM
17 | CCCCCOc1ccc(CSC2=NCCN2)cc1[N+](=O)[O-] | 23.4 µM (inactive)
18 | COC(=O)c1cc2c(ccc3ccccc32)oc1=O | 6.24 µM
19 | COCCOC(=O)c1c(C)oc2ccc(OC(=O)c3ccco3)cc12 | 9.15 µM
20 | C=C1CCC[C@]2(C)C[C@H]3OC(=O)C(CNC(C)CCCC(C)C)[C@H]3CC12 (some centres undefined) | 15.3 µM (inactive)
21 | CC(/C=C/c1cccc([N+](=O)[O-])c1)=N\NC(=O)c1ccncc1 | 1.2 µM
22 | O=C(Nc1ncccc1O)c1ccc(Oc2ccccc2)cc1 | 20.5 µM (inactive)
23 | Cc1cc(Cl)ccc1OC(C)C(=O)Nc1ccc([N+](=O)[O-])cn1 (centres undefined) | 23.3 µM (inactive)
24 | O=C(N/N=C/c1c(O)ccc2ccccc12)c1ccc(Br)o1 | < 0.1 µM

Row | Compound | IC50
25 | O=C(NCCC1CCCC1)c1cccs1 | 1.37 µM
26 | Cn1c(NC(=O)c2ccccc2)nc2ccccc21 | 2.7 µM
27 | COc1ccc2[nH]c3c(C)c4ccncc4c(C)c3c2c1 | 0.59 µM
28 | Cc1ccc(NC(=O)COc2ccccc2)cc1Cl | 9.92 µM
29 | COc1ccc(-c2cc(=O)oc(-c3cccc(C)c3)n2)cc1 | 8.24 µM
30 | CCOc1ccc2nc(NC(=O)c3cnc(C)cn3)sc2c1 | 4.32 µM
31 | OC(COc1ccc2ccccc2c1Br)Cn1ccnc1 (centres undefined) | 33 µM (inactive)
32 | COc1ccc(C(=O)COC(=O)c2ccc([N+](=O)[O-])s2)cc1OC | 2.8 µM
33 | Cc1cc2cc(CNC(=O)COc3ccccc3)ccc2n1C | 26 µM (inactive)
34 | CC(C)(C)OC(=O)NCCc1nnc(S(=O)(=O)Cc2ccc(Cl)cc2Cl)o1 | 4.85 µM
35 | CC(C)(C)OC(=O)NNc1c2ccccc2nc2ccccc12 | 4.09 µM
36 | COc1cc(OC)nc(-n2ncc(Br)c(Br)c2=O)n1 | 6.07 µM
37 | COc1ccc(C(=O)NN/C(C)=C/C(=O)c2ccccc2)cc1 | 1.34 µM
38 | O=[N+]([O-])c1ccc(S(=O)(=O)c2cccc(C(F)(F)F)c2)nc1 | < 0.1 µM
39 | CC(/C=C/c1ccc2c(c1)OCO2)=N/NC(=O)C1COc2ccccc2O1 (centres undefined) | 4.54 µM
40 | COC(=O)C(C)Oc1ccc2cc(-c3ccccc3)c(=O)oc2c1 (centres undefined) | 4.96 µM
41 | CCCc1nnc(-c2ccc(OC)cc2)o1 | 1.24 µM
42 | CC(C)CN1C(=O)/C(=C(/C#N)C(=O)NC2CCCCC2)c2ccccc21 | 25.9 µM (inactive)
43 | O=c1c2ccc(Cl)cc2nc(-c2cccc(C(F)(F)F)c2)n1O | 0.33 µM
44 | COc1ccc(Nc2cc(C)nc(-n3nc(C)cc3C)n2)cc1 | 4.02 µM
45 | Brc1c(-c2ccc3c(c2)OCO3)nc2ncccn12 | 1.1 µM
46 | O=C(CC(=O)c1cc(Cl)ccc1O)c1ccccc1 | 2.65 µM
47 | Cc1ccc2c(C)ccc(O)c2n1 | 5.18 µM
48 | Cc1cc2cc(CNC(=O)C3CCCC3)ccc2n1C | 17.5 µM (inactive)

Row | Compound | IC50
49 | O=Cc1ccc(-c2ccc(Cl)cc2Cl)[nH]1 | 17.3 µM (inactive)
50 | C=CCn1c(O)c(C(C)=Nc2ccc(C(=O)OCC)cc2)c(=O)[nH]c1=O | 7.05 µM
51 | Cc1ccn2nc(S(=O)(=O)Nc3c(F)cccc3F)nc2n1 | 17.5 µM (inactive)
52 | Cc1cccc(NCc2ccc([N+](=O)[O-])s2)c1 | 22.2 µM (inactive)
53 | CN1CCc2c(sc(NC(=O)c3ccc([N+](=O)[O-])o3)c2C(N)=O)C1 | 8.37 µM
54 | CCCOC(=O)c1ccc(NC(=O)Cc2cccs2)cc1 | 24.1 µM (inactive)
55 | CCOc1ccc(NC(=O)Cn2sc3nc(C)cc(C)c3c2=O)cc1 | 5.5 µM
56 | C#CCOc1coc(COC(=O)c2ccccc2)cc1=O | 48.5 µM (inactive)
57 | CC(C)(c1ccccc1)c1ccc(OCC(O)CNC2CCN(Cc3ccccc3)CC2)cc1 (centres undefined) | 5.9 µM
58 | CCCCn1c(=O)c(C(=O)Nc2nnc(C(C)C)s2)c(O)c2ccccc21 | 1.87 µM
59 | O=c1c2cc(Br)ccc2nc(-c2ccc([N+](=O)[O-])cc2)n1O | 0.99 µM
60 | O=C(Nc1ncc(Cc2ccccc2)s1)C1=NCCN1 | 9.49 µM
61 | CCOC(=O)N/N=C\c1ccc([N+](=O)[O-])s1 | 9.1 µM
62 | Oc1ccc(Cl)cc1CNCc1ccc(F)cc1 | 11.1 µM (inactive)
63 | O=C(N/N=C/c1cccc([N+](=O)[O-])c1O)c1cccs1 | 2.34 µM
64 | Cc1cccc(NC(=O)c2n[nH]c([N+](=O)[O-])c2Br)c1C | 7.96 µM
65 | Cc1cc(C)cc(OC(=O)CCN2C(=O)c3ccccc3C2=O)c1 | 19.4 µM (inactive)
66 | FC(F)c1nnc2ccc(Cl)nn12 | 5.9 µM
67 | O=[N+]([O-])c1ccc(-n2nnnc2-c2ccccc2)c([N+](=O)[O-])c1 | 6.37 µM
68 | N#Cc1ccc(N=c2ssnc2Cl)cc1 | 18.1 µM (inactive)
69 | Cc1nc2ccccc2n1/N=C/c1ccc([N+](=O)[O-])s1 | 0.32 µM
70 | Cc1n[nH]c(C)c1CCOc1ccc(C(C)C)cc1 | 19.5 µM (inactive)
71 | Cc1ccc(OC(=O)c2ccc(Br)o2)cc1 | 13.6 µM (inactive)
72 | C/C(=N\NC(=O)COc1cccc(C)c1)c1ccc2ccccc2c1O | 0.18 µM

Row | Compound | IC50
73 | CSc1nc2ccc(NC(=O)C3CC(=O)N(Cc4ccccc4)C3)cc2s1 (centres undefined) | 13.6 µM (inactive)
74 | COc1ccc(C(CCNCc2ccccc2)c2ccc(F)cc2)cc1 (centres undefined) | 8.67 µM
75 | O=C(Nc1cccc(Cl)c1)Nc1nnc(-c2ccncc2)s1 | 2.69 µM
76 | Cc1c(CN(C)C)c2c(n1Cc1ccccc1)C(=O)c1ccc(Br)cc1-2 | 16 µM (inactive)
77 | Cc1ccc(-c2nnc(-c3cccs3)o2)cc1 | 2 µM
78 | Cc1nn(-c2ccccc2)nc1C(=O)c1c(C)[nH]n(-c2ccccc2)c1=O | 4.19 µM
79 | CCNc1nc(NC(C)(C)C)nc(N2CCCCC2)n1 | 9.76 µM
80 | CC1(C(=O)NC(=S)NNC(=O)c2ccncc2)CCCCC1 | 0.94 µM
81 | Cc1cc(C(=O)N/N=C/c2ccc([N+](=O)[O-])o2)c(C)o1 | 5.51 µM
82 | CC(C)c1ccc(OCC(=O)NC2=NCCS2)cc1 | 22.2 µM (inactive)
83 | CC(=O)Oc1c(-c2ccco2)oc2ccccc2c1=O | 10.6 µM (inactive)
84 | COc1cccc(NC(=O)c2cc3ccccc3oc2=O)c1 | 15.2 µM (inactive)
85 | Cc1noc2ncnc(Sc3ccccc3Cl)c12 | 16.4 µM (inactive)
86 | CCCOC(=O)c1ccc(NC(=O)c2ccccc2OC)cc1 | 18.1 µM (inactive)
87 | O=c1c2cc(Cl)ccc2nc(-c2ccccc2Cl)n1O | 15.5 µM (inactive)
88 | N=C1S/C(=C\c2ccco2)C(=O)N1c1nccs1 | 3.04 µM
89 | O=C(CNC1CCCC1)Nc1ccc(N2CCCCCC2)cc1 | 10.7 µM (inactive)
90 | O=C(NCC1CCCCC1)c1ccc([N+](=O)[O-])cc1 | 0.61 µM
91 | O=C(NC1CC2CCC1C2)C1COc2ccccc2O1 (centres undefined) | < 0.1 µM
92 | COc1ccc(C(=O)C2CCCN(C(=O)c3ccc(CSC)o3)C2)cc1F (centres undefined) | 42.2 µM (inactive)
93 | O=C(CCSc1ccccc1)N1CCCC1 | 3.33 µM
94 | CSc1ccc(N=Nc2c(C)[nH]n(C)c2=O)cc1 | 20.6 µM (inactive)
95 | Cc1ccsc1/C=N/NC(=O)c1ccncc1 | 2.05 µM
96 | c1ccc(-c2n[nH]c(-c3ccccn3)n2)nc1 | 6.04 µM

Row | Compound | IC50
97 | O=C1c2cccc3c([N+](=O)[O-])ccc(c23)C(=O)N1c1ccc(Cl)cn1 | 0.69 µM
98 | Cn1c(=O)c(Oc2ccc(Cl)cc2)c(O)c2ccccc21 | 11.1 µM (inactive)
99 | Cc1nc2ccc(NC(=O)COc3cccc(F)c3)cc2s1 | 7.87 µM
100 | CCc1nnc(NC(=O)c2cc3ccccc3oc2=O)s1 | 2.75 µM
101 | O=C(Nc1nnc(-c2ccc(Cl)cc2)o1)c1nc2ccccc2s1 | 0.25 µM
102 | CC(=O)Nc1nc2ccccc2n1Cc1ccc(Cl)cc1 | 1.93 µM
103 | COc1ccccc1-c1nnc(NC(=O)c2ccc3ncsc3c2)o1 | 22.5 µM (inactive)
104 | CCOC(=O)c1ccc(COC(=O)c2ccc(-c3nnc(-c4ccccc4)o3)cc2)o1 | 6.43 µM
105 | CCn1cc(/C=N\NC(=O)c2ccc(F)cc2)cn1 | 24.3 µM (inactive)
106 | C/C(=N\Nc1cccc2cccnc12)c1ccccn1 | 32.7 µM (inactive)
107 | COC(=O)COc1cccc(NC(=O)COc2ccccc2)c1 | 7.75 µM
108 | O=C(Cc1ccc(F)cc1)Nc1ccc(Cl)cn1 | 14.2 µM (inactive)
109 | Cc1cc(N/N=C/c2ccc(O)cc2O)nc(-n2nc(C)cc2C)n1 | 0.77 µM
110 | COc1ccc(CCCC(=O)NCc2ccccc2)cc1C | 5.26 µM
111 | CCOC(=O)CNC(=O)CNC(=O)c1nn(-c2ccc(OC)c(Cl)c2)c(=O)c2ccccc12 | 29.1 µM (inactive)
112 | Cc1cccc(NC(=O)c2ccc([N+](=O)[O-])o2)c1C | 6.39 µM
113 | CCCCN(C/C=C/c1ccccc1OC)Cc1ccccc1 | 8.78 µM
114 | CN(C)CCCN(C(=O)CCc1ccccc1)c1nc2ccc(Br)cc2s1 | 14.2 µM (inactive)
115 | Cc1ccccc1-n1sc2cc(F)ccc2c1=O | 9.85 µM
116 | O=C(CC1CCCC1)OCn1nnc2ccccc2c1=O | 14 µM (inactive)
117 | COc1cccc2sc(N3CCN(C(=O)c4ccc([N+](=O)[O-])o4)CC3)nc12 | < 0.1 µM
118 | Cc1cccc(NC(=O)c2cc3ccccc3oc2=O)c1 | 10.5 µM (inactive)
119 | Cc1ccc(-n2c(C)cc(C3=NNC(=NC4CC4)SC3)c2C)cc1C | 7.03 µM
